From patent US9540338B2, “Substituted cinnamic acid amides for treating pain” (NIPPON ZOKI PHARMACEUTICAL CO., LTD., priority 2012, dated 2017)

How the values were obtained:
[1] = test system: Chung model rat; experiment: Analgesic efficacy test (2): Chung model rat, neuropathic pain model (allodynia, von Frey filament); assay type: in vivo, rats; settings: measurement point 60 minute (action peak), mean ± standard error
Summary of the method: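 Male Wistar rats, left L5 spinal nerve ligation; used ≥14 days post-injury if 50% threshold was 1 g to <4 g, 7–8 per group. Single oral dose in 0.5% CMC-Na; von Frey 50% threshold (up-down method) at action peak, vs vehicle-treated nerve-injured controls, Dunnett's test, P<0.05.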

[2] = test system: ddY-type mice; experiment: Analgesic efficacy test (1): acetic acid writhing test; assay type: in vivo; settings: Mus musculus, writhing number, mean ± standard error, 8 mice per group, read-out: Suppressive Rate
Description: A compound of the present invention was orally administered to mice, to carry out an analgesic efficacy test according to acetic acid writhing test. As an experimental animal, 4-week old male ddY-type mice were previously bred, and thereafter 8 mice per one group were used in the experiment. A solution or suspension prepared by dissolving or suspending a compound of the present invention in a 0.5% (w/v) aqueous CMC-Na solution was orally administered as a test substance in a single dose. While, to a control group, a 0.5% (w/v) aqueous CMC-Na solution was administered in the same manner After 25 minutes from administration, the mice were intraperitoneally administered with a 0.7% (v/v) acetic acid/physiological saline at the dose of 10 mL/kg. From 5 minutes thereafter, writhing number in a 10-minute period was counted, and a suppressive rate for each individual (mean±standard error) was calculated by the following formula: […]
In the test for significance difference, Bartlett's test was carried out in the comparison between multiple groups of the group administered with test substance with the control group. In the case of homoscedasticity, Dunnett's multiple comparison test of parametrics, and in the case of heteroscedasticity, Dunnett's multiple comparison test of non-parametrics were used. In addition, in the test of dose dependency, Jonckheere-Terpstra's test was used. In all cases, significance difference was considered to be found at P<0.05 (indicated as “*” in the table).

Which “50% Reaction Threshold, Group Administered with Test Substance, After Administration” value ([1]; oral 1 mg/kg) does the source give for `CN(C)CCCNC(=O)/C=C/c1ccccc1F.Cl` [Compound 12, (E)-N-(3-Dimethylaminopropyl)-3-(2-fluorophenyl)-2-propenamide hydrochloride] here?
Its value is 4.64 ± 0.70 g.

What about the “50% Reaction Threshold, Group Administered with Test Substance, After Administration” value ([1]; oral 10 mg/kg) of the same molecule?
Its value is 5.00 ± 1.17 g.

What about the inhibition in vivo at 10 mg/kg ([2]; oral single dose 10 mg/kg) of the same molecule?
Its inhibition in vivo at 10 mg/kg is -4.3 ± 12%.

And the inhibition in vivo at 100 mg/kg ([2]; oral single dose 100 mg/kg)?
The inhibition in vivo at 100 mg/kg was 49.4 ± 14.5%.

What about the melting point of the same molecule?
Its melting point is 99 to 100 °C.
